Results taken from a melting point compilation (Tetko et al.).

| Compound | melting point [°C] |
| --- | --- |
| CC1OC(Oc2c[nH]c3ccc(Br)c(Cl)c23)C(O)C(O)C1O (centres undefined) | 213 to 217 |
| NC(Cc1ccc([N+](=O)[O-])cc1)C(=O)O (racemic) | 236 to 237 |
| N#Cc1ccccc1CCl | 61 |
| CCNc1nc(NC(C)CC)nc(OC)n1 (centres undefined) | 87 |
| COc1ccc(-n2c(=S)[nH]c3ccccc3c2=O)cc1 | 307 to 310 |
| CCOCC1C(=O)C2(C)CCC1C2(C)C (centres undefined) | 114 |
| O=C(O)CCC(F)(F)F | 31 |
| COc1ccc2c(c1)CC1(CCC(=O)C(C(=O)O)C1)C2=O (centres undefined) | 120 |
| C=COC(=O)CCCCCCCCCCCCCCCCC | 36 |
| O=C(O)CN(CCOCCOCCN(CC(=O)O)CC(=O)O)CC(=O)O | 240 to 245 |
| CCCCC(/C=C1\C(=O)C2(C)CCC1C2(C)C)(/C=C1\C(=O)C2(C)CCC1C2(C)C)C(=O)OCC (centres undefined) | 175 |
| CC1(O)CCC2C3CCC4=CC(=O)CCC4(C)C3(F)C(O)CC21C (centres undefined) | 270 |
| CSC(SC)=C(C#N)C(=O)c1cccc(C(F)(F)F)c1 | 60 |
| COc1cc(C(O)C(=O)O)ccc1O (centres undefined) | 131 to 134 |
| CC(=O)c1cccnc1C(=O)OC(C)C | 40 |
| COC(=O)C1(C(=O)OC)Cc2cccc(OC)c2C(=O)O1 | 88.7 to 89.7 |
| CCCCCCCCC(C)CC (centres undefined) | -58 |
| CCCCCCCCCCCCCCCCOc1ccc(N)cc1 | 60 |
| Cc1ccc(C(=O)O)cc1C(F)(F)F | 177 |
| C/C=C/C=C/C(=O)OC | 15 |

| Compound | melting point [°C] |
| --- | --- |
| CC(C)(C)c1cc(N)cc(C(C)(C)C)c1 | 56 |
| CCOC(=O)CC(=O)c1ccc([N+](=O)[O-])cc1 | 72 |
| CCCCCOC(=O)Nc1nc(=O)n(C2OC(C)C(O)C2O)cc1F (centres undefined) | 116 |
| CN1C2CC3CC1C(O3)C2O (centres undefined) | 108 |
| Cn1nnc2c1ccc(=O)n2C1OC(CO)C(O)C1O (centres undefined) | 211 |
| O=Cc1cc(Cl)cc(Br)c1O | 86 |
| CCOC(=O)c1cc(C(C)=O)ccc1OCC | 53 |
| CCOc1cc(NC(C)=O)ccc1C(=O)OC | 148 |
| CC12CCC(O)CC1CCC1C2C(=O)CC2(C)C1CCC2(O)C(=O)CO (centres undefined) | 213 |
| O=[N+]([O-])c1cccc(S(=O)(=O)OCC2CO2)c1 (centres undefined) | 61 to 65 |
| O=C(O)C(O)(c1ccccc1Cl)c1ccccc1Cl | 162 |
| O=Cc1cccc(C(F)(F)F)c1O | 57 |
| O=C(Nc1c(Cl)cc(Cl)cc1Cl)C(F)(F)C(F)(F)C(F)(F)C(F)(F)C(F)(F)C(F)(F)C(F)(F)C(F)(F)F | 115 |
| C1COCCOCCOCCOCCN1 | 35 to 37 |
| NC(=S)CS(=O)(=O)c1cccs1 | 160 to 164 |
| CCN1CCCC1CNC(=O)c1cc(S(=O)(=O)CC)c(N)cc1OC (centres undefined) | 126 |
| OC[C@H]1CC[C@H](CO)CC1 | 61 to 66 |
| Nc1ccccc1C(=O)c1ccccc1 | 107 |
| Cc1ccc2ccccc2c1N | 32 |
| O=C1NC(=O)c2cc([N+](=O)[O-])ccc21 | 206 |

| Compound | melting point [°C] |
| --- | --- |
| CC(=O)NNC(C)=O | 140 |
| O=C1c2nonc2CCC1Br (centres undefined) | 65 to 68 |
| COc1c(C(=O)O)csc1Br | 155 to 156 |
| Nc1cc(CO)ccn1 | 83 |
| O=C(CCl)C(Cl)(Cl)Cl | 65 |
| C=CCc1cc2c(c(OC)c1OC)OCO2 | 29.5 |
| CCC(=O)c1cc(F)cc(F)c1 | 26 |
| OCc1cccc2c1OCCO2 | 54 to 55 |
| COc1cc(C)nc(-n2nc(C)cc2OC)n1 | 91 |
| Cc1c(Cl)c(Cl)cc(Cl)c1Cl | 93.5 |
| COC(=O)C(C#N)=c1sc(=C(C#N)C(=O)OC)s1 | 235 to 250 |
| NNC(=S)NCCN1CCCCC1 | 121 to 123 |
| Cc1ccc(C(=S)N2CCCCC2)cc1 | 93 |
| CC(=O)c1ccc(N=C=O)cc1 | 34 |
| Cc1c([N+](=O)[O-])cc(C(=O)N2CCCCCC2)cc1[N+](=O)[O-] | 106 |
| N#Cc1c(O)cccc1F | 156 |
| O=[N+]([O-])c1ccc(/C=N/n2c(S)nnc2C(F)(F)F)cc1 | 193 |
| CC1C(=O)NC(=O)C1(C)C (centres undefined) | 117 to 122 |
| N#Cc1cc(C(F)(F)F)ccc1N1CCOCC1 | 53 to 55 |
| N#Cc1cccc(Cn2cncn2)c1 | 91 to 92 |

The next lines start with the values.

| melting point [°C] | Compound |
| --- | --- |
| 61 | Cc1ccc2ccc(C)nc2c1 |
| 105 to 107 | Oc1ccc2cc(Br)ccc2c1Br |
| 209 | Cc1cc(N=Nc2ccc(N=Nc3ccccc3)cc2)ccc1N=Nc1ccc(N=Nc2ccccc2)cc1 |
| 185 | Nc1ccccc1-c1c(-c2ccccc2)noc1-c1ccccc1 |
| 105 to 107 | N#Cc1cccnc1Sc1ccccc1 |
| 126 | COc1ccccc1C1Nn2c(COc3ccccc3)nnc2S1 (centres undefined) |
| 100 | CCC(C(=O)NC(=O)NC(C)=O)c1ccccc1 (centres undefined) |
| 149 | Cc1ccc(-c2onc(C(=O)c3ccc(Cl)cc3)c2S(=O)(=O)c2ccccc2)cc1 |
| 71 to 74 | Cc1nc(-c2ccc(CO)cc2)cs1 |
| 285 | O=C(O)c1ccc(N2C(=O)C3C(C(=O)c4ccc(Cl)cc4)=NN(c4ccccc4)C3C2=O)cc1 (centres undefined) |
| 181 | N#Cc1ccc(C(c2ccc(C#N)cc2)n2cncn2)cc1 |
| 148 | CC1(C)C2CCC1(C)C(NC(=O)c1ccccc1)C2NC(=O)c1ccccc1 (centres undefined) |
| 285 | O=C1OC2(c3ccccc31)c1ccc(O)c(Br)c1Oc1c2ccc(O)c1Br |
| 103 to 105 | O=C(CCl)N(c1ccccc1)C1CCCCC1 |
| 47 | c1ccc(P(CCCCCP(c2ccccc2)c2ccccc2)c2ccccc2)cc1 |
| 210 | Nc1nn(-c2ccccc2)c2nc3ccccc3nc12 |
| 63 | O=C(O)Cc1ccccc1F |
| 155 to 156 | CCOC(=O)CON=C(c1cc2ccccc2o1)C1CC(C)(c2ccccc2)C1 (centres undefined) |
| 117 to 118 | O=C(O)C1Cc2ccccc2O1 (centres undefined) |
| 120 | O=Cc1ccc(Sc2ccc(Cl)cc2)c([N+](=O)[O-])c1 |
| 111 to 112 | NCc1ccc2c(Br)cccc2c1 |
| 143 to 144 | Cc1cc(C)c(CC(=NOCC(=O)O)c2cc3ccccc3o2)c(C)c1 |
| 155 | COc1ccc(-c2cc(=O)c3ccccc3o2)cc1OC |
| 240 to 243 | COc1ccc(C(=O)Nc2ccc(-c3ccc4nn(-c5ccccc5)nc4c3)cc2)cc1 |
| 100 | Fc1ncccc1-c1ccc(Cl)cn1 |
| 110 | Cc1c(/C=C/c2ccc(Cl)cc2Cl)c2ccccc2n1S(=O)(=O)c1ccccc1 |
| 104 | CCOc1ccc(OC(=O)c2ccccc2)cc1 |
| 185 | Cn1c(/C(C#N)=C/c2c(Cl)cccc2Cl)nc2ccccc21 |
| 209 | O=C1C=C(NCc2cccnc2)C(=O)c2ccccc21 |
